Data reported in patent US20010018095A1, “Method of forming a membrant, especially a latex or polymer membrane, including multiple discrete layers” (priority 1987, published 2001).

Legend:
[1] = candidate solvents for polyurethane and biocide; cited from earlier work
[2] = system: latex-allergic or sensitive users; assay: Gentian violet admixed with liquid latex: allergic reactions in users; conditions: gentian violet admixed with liquid latex prior to membrane formation; 1.5% by weight solution preferred
Source text: According to one aspect of the invention, gentian violet is admixed with liquid latex prior to membrane formation by dipping or spraying techniques. A wide variety of different concentrations may be used, but a 1.5% by weight solution of gentian violet is preferred. […] Other proteing binding biocides may be employed in place of or in combination with gentian violet.

SMILES	Hydrogen Bonding [1]	allergic reactions in latex-allergic or sensitive users [2]
CCOCCO [Ethylene glycol monoethyl ether]	medium	–
CCC(C)=O [Methyl ethyl ketone]	medium	–
CC(=O)N(C)C [Dimethyl acetamide (DMF), Dimethyl acetamide]	medium	–
CN(C)c1ccc(C(=C2C=CC(=[N+](C)C)C=C2)c2ccc(N(C)C)cc2)cc1 [gentian violet]	–	minimize allergic reactions
CCC(=O)CC [Diethyl ketone]	medium	–
Cc1cccc(O)c1 [m-Cresol]	strong	–
C[S+](C)[O-] [Dimethyl sulfoxide (DMS), Dimethyl sulfoxide]	medium	–
C1CCOC1 [Tetrahydrofuran (THF), Tetrahydrofuran]	medium	–
